Structures can show the parent of a compound that is named as a salt.
How the values were obtained:
[1] = test system: RS4;11 leukaemia tumour line; assay: In vitro cytotoxicity, Microculture Tetrazolium Assay (MTT); type: cell-based; details: RS4;11 cells, 48 hours exposure
Method: The cytotoxicity studies were carried out on the RS4;11 leukaemia tumour line.
The cells are distributed onto microplates and exposed to the test compounds for 48 hours. The cell viability is then quantified by a colorimetric assay, the Microculture Tetrazolium Assay (Cancer Res., 1987, 47, 939-942).

[2] = biological target: Bcl-2 protein (histag-Bcl-2, UniProtKB P10415) (Homo sapiens (Human), UniProt P10415); assay: Inhibition of Bcl-2 by the fluorescence polarisation technique; type: binding; details: fluorescence polarisation test; method A, or method B where underlined (underlining not visible); read-out: IC50 (nM) Bcl-2 FP
Sequence of Bcl-2 protein (P10415 whole entry): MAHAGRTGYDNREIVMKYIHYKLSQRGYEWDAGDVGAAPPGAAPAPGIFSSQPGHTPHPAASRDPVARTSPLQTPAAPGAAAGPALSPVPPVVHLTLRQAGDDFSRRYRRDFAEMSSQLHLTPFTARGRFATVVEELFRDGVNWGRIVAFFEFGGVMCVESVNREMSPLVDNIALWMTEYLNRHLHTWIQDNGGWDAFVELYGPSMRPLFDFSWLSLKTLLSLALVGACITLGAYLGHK
Text: Inhibition of Bcl-2 by the fluorescence polarisation technique

| Structure (SMILES) | IC50 [2] [nM] | IC50 ([1]; Homo sapiens) [nM] | IC50 [1] [nM] |
| --- | --- | --- | --- |
| CN1CCN(C[C@@H]2Cc3ccccc3CN2C(=O)c2ccccc2-n2cc(C(=O)N(c3ccccc3)c3ccc(O)cc3)c3ccccc32)CC1 [Example 155, N-(4-Hydroxyphenyl)-1-{2-[(3S)-3-[(4-methylpiperazin-1-yl)methyl]-1,2,3,4-tetrahydroisoquinoline-2-carbonyl}phenyl]-N-phenyl-1H-indole-3-carboxamide] | 13.2 | 246 |  |
| CC(=O)Oc1ccc(N(C(=O)c2cn(-c3cc4c(cc3C(=O)N3Cc5ccccc5C[C@H]3CN3CCN(C)CC3)OCO4)c3ccccc23)c2ccc(C)cc2)cc1 [Example 60, 4-[(4-Methylphenyl){[1-(6-{[(3S)-3-[(4-methylpiperazin-1-yl)methyl]-3,4-dihydroisoquinolin-2(1H)-yl]carbonyl}-1,3-benzodioxol-5-yl)-1H-indol-3-yl]-carbonyl}amino]phenyl acetate] | 206 |  | 89.5 |
| CC(C)CC1Oc2cc(C(=O)N3Cc4ccccc4C[C@H]3CN)c(-n3cc(C(=O)N(c4ccccc4)c4ccc(O)cc4)c4ccccc43)cc2O1 (stereo partly drawn) [Example 158, 1-{6-[(3S)-3-(Aminomethyl)-1,2,3,4-tetrahydroisoquinoline-2-carbonyl]-2-(2-methylpropyl)-2H-1,3-benzodioxol-5-yl}-N-(4-hydroxyphenyl)-N-phenyl-1H-indole-3-carboxamide] | 54.1 | 834 |  |
| CN1CCN(C[C@@H]2Cc3ccccc3CN2C(=O)c2ccc(Br)cc2-n2cc(C(=O)N(c3ccc(O)cc3)c3ccc4c(ccn4C)c3)c3ccccc32)CC1 [Example 69, 1-(5-Bromo-2-{[(3S)-3-[(4-methylpiperazin-1-yl)methyl]-3,4-dihydroisoquinolin-2(1H)-yl]carbonyl}phenyl)-N-(4-hydroxyphenyl)-N-(1-methyl-1H-indol-5-yl)-1H-indole-3-carboxamide hydrochloride] | 9 | 67.6 |  |
| Cc1cc(C(=O)N(c2ccc(O)cc2)c2ccc(O)cc2)cn1-c1cc(Cl)ccc1C(=O)N1Cc2ccccc2C[C@H]1CN1CCN(C)CC1 [Example 67, 1-(5-Chloro-2-{[(3S)-3-[(4-methylpiperazin-1-yl)methyl]-3,4-dihydroisoquinolin-2(1H)-yl]carbonyl}phenyl)-N,N-bis(4-hydroxyphenyl)-5-methyl-1H-pyrrole-3-carboxamide] | 5.9 | 101 |  |
| COc1cc(-n2cc(C(=O)N(c3ccccc3)c3ccccc3)c3ccccc32)c(C(=O)N2Cc3ccccc3C[C@H]2CN2CCN(C)CC2)cc1O [Example 181, 1-{4-Hydroxy-5-methoxy-2-[(3S)-3-[(4-methylpiperazin-1-yl)methyl]-1,2,3,4-tetrahydroisoquinoline-2-carbonyl]phenyl}-N,N-diphenyl-1H-indole-3-carboxamide dihydrochloride] | 6.9 | 205 |  |
| NC[C@@H]1Cc2ccccc2CN1C(=O)c1cc(N)ccc1-n1nc(C(=O)N(c2ccccc2)c2ccccc2)c2ccccc21 [Example 138, 1-{4-Amino-2-[(3S)-3-(aminomethyl)-1,2,3,4-tetrahydroisoquinoline-2-carbonyl]phenyl}-N,N-diphenyl-1H-indazole-3-carboxamide] | 52.2 | 2020 |  |

Continued by falling IC50 [2], values first:

| IC50 [2] [nM] | Structure (SMILES) | IC50 ([1]; Homo sapiens) [nM] | IC50 [1] [nM] |
| --- | --- | --- | --- |
| 37.4 | COc1cc(C(=O)N2Cc3ccccc3C[C@H]2CN2CCN(C)CC2)c(-n2cc(C(=O)N(c3ccccc3)c3ccc(O)cc3)c3ccccc32)cc1Cl [Example 167, 1-{5-Chloro-4-methoxy-2-[(3S)-3-[(4-methylpiperazin-1-yl)methyl]-1,2,3,4-tetrahydroisoquinoline-2-carbonyl]phenyl}-N-(4-hydroxyphenyl)-N-phenyl-1H-indole-3-carboxamide] | 984 |  |
| 22.8 | CN1CCN(C[C@@H]2Cc3ccccc3CN2C(=O)c2cc(NC(=O)CSc3ccccc3)ccc2-n2cc(C(=O)N(c3ccccc3)c3ccc(O)cc3)c3ccccc32)CC1 [Example 163, N-(4-Hydroxyphenyl)-1-{2-[(3S)-3-[(4-methylpiperazin-1-yl)methyl]-1,2,3,4-tetrahydroisoquinoline-2-carbonyl]-4-[2-(phenylsulphanyl)acetamido]phenyl}-N-phenyl-1H-indole-3-carboxamide] | 292 |  |
| 13.6 | Cc1cc(C(=O)N(c2ccc(O)cc2)c2ccc3c(ccn3C)c2)cn1-c1cc2c(cc1C(=O)N1Cc3ccccc3C[C@H]1CN1CCCC1)OCO2 [Example 105, N-(4-Hydroxyphenyl)-5-methyl-N-(1-methyl-1H-indol-5-yl)-1-(6-{[(3S)-3-(pyrrolidin-1-ylmethyl)-3,4-dihydroisoquinolin-2(1H)-yl]carbonyl}-1,3-benzodioxol-5-yl)-1H-pyrrole-3-carboxamide hydrochloride] | 202 |  |
| 8.1 | Cc1cc(C(=O)N(c2ccc(O)cc2)c2ccc3c(c2)CCN3)cn1-c1cc2c(cc1C(=O)N1Cc3ccccc3C[C@H]1CN1CCOCC1)CCC2 [Example 110, N-(2,3-Dihydro-1H-indol-5-yl)-N-(4-hydroxyphenyl)-5-methyl-1-(6-{[(3S)-3-(morpholin-4-ylmethyl)-3,4-dihydroisoquinolin-2(1H)-yl]carbonyl}-2,3-dihydro-1H-inden-5-yl)-1H-pyrrole-3-carboxamide hydrochloride] | 291 |  |
| 7.7 | CN1CCN(C[C@@H]2Cc3ccccc3CN2C(=O)c2cc3c(cc2-n2cc(C(=O)N(c4ccccc4)c4ccc(O)c(F)c4)c4ccccc42)OCO3)CC1 [Example 34, N-(3-Fluoro-4-hydroxyphenyl)-1-(6-{[(3S)-3-[(4-methylpiperazin-1-yl)methyl]-3,4-dihydroisoquinolin-2(1H)-yl]carbonyl}-1,3-benzodioxol-5-yl)-N-phenyl-1H-indole-3-carboxamide] | 133 |  |
| 7.2 | CN1CCN(C[C@@H]2Cc3ccccc3CN2C(=O)c2cc3c(cc2-n2cc(C(=O)N(c4ccc(O)cc4)c4ccc5sccc5c4)c4ccccc42)OCO3)CC1 [Example 43, N-(1-Benzothiophen-5-yl)-N-(4-hydroxyphenyl)-1-(6-{[(3S)-3-[(4-methylpiperazin-1-yl)methyl]-3,4-dihydroisoquinolin-2(1H)-yl]carbonyl}-1,3-benzodioxol-5-yl)-1H-indole-3-carboxamide] | 101 |  |
| 6.6 | Cc1cc(C(=O)N(c2ccc(O)cc2)c2ccc(F)cc2)cn1-c1cc(Cl)ccc1C(=O)N1Cc2ccccc2C[C@H]1CN1CCN(C)CC1 [Example 66, 1-(5-Chloro-2-{[(3S)-3-[(4-methylpiperazin-1-yl)methyl]-3,4-dihydroisoquinolin-2(1H)-yl]carbonyl}phenyl)-N-(4-fluorophenyl)-N-(4-hydroxyphenyl)-5-methyl-1H-pyrrole-3-carboxamide] | 148 |  |
| 5.1 | Cc1cc(C(=O)N(c2ccc(O)cc2)c2ccc(Cl)cc2)cn1-c1cc(Cl)ccc1C(=O)N1Cc2ccccc2C[C@H]1CN1CCN(C)CC1 [Example 65, 1-(5-Chloro-2-{[(3S)-3-[(4-methylpiperazin-1-yl)methyl]-3,4-dihydroisoquinolin-2(1H)-yl]carbonyl}phenyl)-N-(4-chlorophenyl)-N-(4-hydroxyphenyl)-5-methyl-1H-pyrrole-3-carboxamide] | 130 |  |

From US9765056B2, “Indole and pyrrole compounds, a process for their preparation and pharmaceutical compositions containing them” (LES LABORATOIRES SERVIER, priority 2013, dated 2017)
